Columns and labels:
[1] = In vivo inhibition of dental caries in rats on cariogenic diet inoculated with Streptococcus mutans; design: species or system Male Sprague-Dawley rats; settings: for Average caries score (± S.E.), Dm (moderate dental caries) / Average caries score (± S.E.), Ds (slight dental caries) / Average caries score (± S.E.), Dx (extensive dental caries) / Inhibition rate of dental caries, Dm (moderate dental caries) / Inhibition rate of dental caries, Ds (slight dental caries) / Inhibition rate of dental caries, Dx (extensive dental caries): 8 weeks
Experimental: Further, the ability of the composition of the present invention to inhibit dental caries was tested in vivo as follows:
45 Male Sprague-Dawley rats (18 days old) were divided into three groups (15 rats/group). These rats were kept with the following cariogenic diet and deionized water during the test period (8 weeks).
0.2 ml of a culture broth, which was prepared by anaerobic cultivation of Streptococcus mutans in brain-heart-infusion broth at 37° C. for 24 hours, was orally administered to each rat once a day for 5 days. On the first, 7th, 14th, 21st, 28th and 35th days of the test period, 10% solution of (NH4)2 MoO2 F4 in deionized water (pH 7.5) was applied twice to mandibular molar of each rat of the first group with a cotton applicator and dried for 5 minutes. Likewise, 2% solution of NaF in deionized water (pH 3.6) was applied to each rat of the second group. As a control, mere deionized water was also applied to each rat of the third group. After 8 weeks, rats were sacrificed and mandibula of each rat was isolated and autoclaved at 121° C. for 5 minutes to remove gingiva and the like attached thereto. After drying, the severity of dental caries of each isolated mandibular molar was estimated with a caries score according to the method described in P. H. Keyes, J. Dent. Res., […], 1088-1099 (1958). In Tables 3 and 4, symbols of the severity of dental caries mean as follows:
Dm: moderate dental caries (dental caries extends to a quarter to three quarters part between enamel and dental pulp); and
Dx: extensive dental caries (dental caries extends to more than three quarters part between enamel and dental pulp).
The inhibition rate of dental caries is calculated as follows: [formula]

mice = assay: LD50 in mice; type: in vivo
Source text: Further, the dental composition of the present invention is useful from a viewpoint of toxicity since the molybdate compounds used in the present invention have toxicity as low as that of other medicaments commonly used for inhibition of dental caries.

[2] = Ability to inhibit decalcification of the hard tissue (dissolved calcium from human dentin powder in acid solution)
Experimental: The ability to inhibit decalcification of the hard tissue was estimated according to the method described in Nishino. Osaka University Shigaku Zasshi, Vol. 14, page 1 (1969). That is, firstly, a certain amount of human dentin powder was treated with a composition (aqueous solution of a molybdate compound) to be tested for certain minutes and then unbonded excess components were removed by washing with water to obtain a sample powder. Then, the sample powder was treated with an acid solution (decalcification) and the amount of calcium in the solution, which was dissolved in the solution by action of the acid, was determined (sample calcium content). Similarly, untreated dentin powder was added to an acid solution and the amount of calcium in the acid solution was determined (control calcium content). From these values, a inhibition rate of decalcification was calculated as follows: [formula]

[3] = test system: protease (collagenase or trypsin); assay: Ability to inhibit digestion of the soft tissue (human decalcified dentin powder in opaque agar plate, clear zone with protease); type: biochemical; settings: sodium fluoride
Experimental: The ability to inhibit digestion of the soft tissue was estimated according to the method described in Yanagida et al, Shonishikagaku Zasshi, Vol. 9, page 39 (1971). That is, various molybdate compounds (Na2 MoO2 F4, K2 MoO2 F4, (NH4)2 MoO2 F4, Na2 MoO4 or K2 MoO4) were dissolved in deionized water in various concentrations to obtain various compositions to be tested. A certain amount of human decalcified dentin powder was treated with each of the above prepared compositions for certain minutes and then unbonded excess components were removed by dialysis to obtain a sample powder. Then, an opaque agar plate was prepared from a mixture of agar and the sample powder, and a protease (collagenase or trypsin) was added to the plate. The inhibiting ability was estimated by observing whether a clear zone was formed on the plate or not (the clear zone is formed by dissolution of the powder with the enzyme, and the formation thereof means digestion of the soft tissue).

[4] = 1st group, 10% solution, pH 7.5
[5] = 0.5 hr decalcification, Mo 1%, pH 3
[6] = 0.5 hr decalcification, Mo 1%, pH 5
[7] = 1 hr decalcification, Mo 1%, pH 3
[8] = 1 hr decalcification, Mo 1%, pH 5
[9] = 3 hrs decalcification, Mo 1%, pH 3
[10] = 3 hrs decalcification, Mo 1%, pH 5
[11] = 5 hrs decalcification, Mo 1%, pH 3
[12] = 5 hrs decalcification, Mo 1%, pH 5
[13] = 0.5 hr decalcification, Mo 4%, pH 7
[14] = 1 hr decalcification, Mo 4%, pH 7
[15] = 3 hrs decalcification, Mo 4%, pH 7
[16] = 5 hrs decalcification, Mo 4%, pH 7

## [NH4+].[NH4+].[O]=[Mo-2](=[O])([F])([F])([F])[F] [(NH4)2 MoO2 F4, ammonium dioxotetrafluoromolybdate]
[1]; [4]
  Average caries score (± S.E.), Dm (moderate dental caries): 0.7 ± 0.2
  Average caries score (± S.E.), Ds (slight dental caries): 3.9 ± 0.6
  Average caries score (± S.E.), Dx (extensive dental caries): 0.2 ± 0.2
  Inhibition rate of dental caries, Dm (moderate dental caries): 82.9%
  Inhibition rate of dental caries, Ds (slight dental caries): 54.7%
  Inhibition rate of dental caries, Dx (extensive dental caries): 93.8%
[1]; Tables 3 and 4
  Dental caries inhibitory effect (in words): excellent dental caries inhibitory effect
[1]; at any severity
  Inhibition rate of dental caries compared with NaF (in words): extremely superior to that of the composition containing NaF
[1]; scores of Dm and Dx in Table 3
  Inhibition of moderate and extensive dental caries (in words): moderate and extensive dental caries are almost inhibited
mice
  LD50 (p.o.): 124 mg/kg
[2]; [5]
  Inhibition rate of decalcification: 44.43%
[2]; [6]
  Inhibition rate of decalcification: 44.43%
[2]; [7]
  Inhibition rate of decalcification: 34.60%
[2]; [8]
  Inhibition rate of decalcification: 45.45%
[2]; [9]
  Inhibition rate of decalcification: 36.47%
[2]; [10]
  Inhibition rate of decalcification: 42.39%
[2]; [11]
  Inhibition rate of decalcification: 37.27%
[2]; [12]
  Inhibition rate of decalcification: 43.12%

## [K+].[K+].[O]=[Mo](=[O])([O-])[O-] [K2 MoO4, potassium orthomolybdate]
[2]; 0.5 hr decalcification, Mo 4%, pH 3
  Inhibition rate of decalcification: 30.80%
[2]; [13]
  Inhibition rate of decalcification: 36.30%
[2]; 1 hr decalcification, Mo 4%, pH 3
  Inhibition rate of decalcification: 33.33%
[2]; [14]
  Inhibition rate of decalcification: 38.64%
[2]; 3 hrs decalcification, Mo 4%, pH 3
  Inhibition rate of decalcification: 35.42%
[2]; [15]
  Inhibition rate of decalcification: 43.55%
[2]; 5 hrs decalcification, Mo 4%, pH 3
  Inhibition rate of decalcification: 34.52%
[2]; [16]
  Inhibition rate of decalcification: 36.24%

## [Na+].[Na+].[O]=[Mo-2](=[O])([F])([F])([F])[F] [Na2 MoO2 F4, sodium dioxotetrafluoromolybdate]
[2]; [5]
  Inhibition rate of decalcification: 63.30%
[2]; [6]
  Inhibition rate of decalcification: 62.39%
[2]; [7]
  Inhibition rate of decalcification: 64.65%
[2]; [8]
  Inhibition rate of decalcification: 50.51%
[2]; [9]
  Inhibition rate of decalcification: 66.67%
[2]; [10]
  Inhibition rate of decalcification: 49.59%
[2]; [11]
  Inhibition rate of decalcification: 66.28%
[2]; [12]
  Inhibition rate of decalcification: 49.43%

## [Na+].[Na+].[O]=[Mo](=[O])([O-])[O-] [Na2 MoO4, sodium orthomolybdate]
[2]; 0.5 hr decalcification, Mo 4%, pH 5
  Inhibition rate of decalcification: 45.61%
[2]; [13]
  Inhibition rate of decalcification: 44.04%
[2]; 1 hr decalcification, Mo 4%, pH 5
  Inhibition rate of decalcification: 47.60%
[2]; [14]
  Inhibition rate of decalcification: 42.17%
[2]; 3 hrs decalcification, Mo 4%, pH 5
  Inhibition rate of decalcification: 49.25%
[2]; [15]
  Inhibition rate of decalcification: 33.80%
[2]; 5 hrs decalcification, Mo 4%, pH 5
  Inhibition rate of decalcification: 47.82%
[2]; [16]
  Inhibition rate of decalcification: 35.42%

## O=P([O-])([O-])[O-].[Na+].[Na+].[Na+].[O]=[Mo](=[O])=[O].[O]=[Mo](=[O])=[O].[O]=[Mo](=[O])=[O].[O]=[Mo](=[O])=[O].[O]=[Mo](=[O])=[O].[O]=[Mo](=[O])=[O].[O]=[Mo](=[O])=[O].[O]=[Mo](=[O])=[O].[O]=[Mo](=[O])=[O].[O]=[Mo](=[O])=[O].[O]=[Mo](=[O])=[O].[O]=[Mo](=[O])=[O] [Na3 PO4 . 12MoO3, sodium phosphorus molybdate]
[2]; [5]
  Inhibition rate of decalcification: 42.20%
[2]; [6]
  Inhibition rate of decalcification: 49.90%
[2]; [7]
  Inhibition rate of decalcification: 42.42%
[2]; [8]
  Inhibition rate of decalcification: 33.21%
[2]; [9]
  Inhibition rate of decalcification: 41.11%
[2]; [10]
  Inhibition rate of decalcification: 30.78%
[2]; [11]
  Inhibition rate of decalcification: 40.94%
[2]; [12]
  Inhibition rate of decalcification: 30.85%

## [F-].[Na+] [NaF, sodium fluoride, reference compound]
[3]
  Inhibition of protease digestion (in words): does not inhibit protease digestion of the soft tissue
[3]; listed as sodium fluoride
  Inhibition of protease digestion (in words): no inhibition of protease digestion
[1]; 2nd group, 2% solution, pH 3.6
  Average caries score (± S.E.), Dm (moderate dental caries): 2.3 ± 0.5
  Average caries score (± S.E.), Ds (slight dental caries): 6.9 ± 0.8
  Average caries score (± S.E.), Dx (extensive dental caries): 1.1 ± 0.4
  Inhibition rate of dental caries, Dm (moderate dental caries): 43.9%
  Inhibition rate of dental caries, Ds (slight dental caries): 19.8%
  Inhibition rate of dental caries, Dx (extensive dental caries): 65.6%
[2]; 0.5 hr decalcification, reference NaF 2%, pH 5
  Inhibition rate of decalcification: 43.91%
[2]; 0.5 hr decalcification, reference NaF 2%, pH 7
  Inhibition rate of decalcification: 41.94%
[2]; 1 hr decalcification, reference NaF 2%, pH 5
  Inhibition rate of decalcification: 40.66%
[2]; 1 hr decalcification, reference NaF 2%, pH 7
  Inhibition rate of decalcification: 36.36%
[2]; 3 hrs decalcification, reference NaF 2%, pH 5
  Inhibition rate of decalcification: 47.97%
[2]; 3 hrs decalcification, reference NaF 2%, pH 7
  Inhibition rate of decalcification: 36.59%
[2]; 5 hrs decalcification, reference NaF 2%, pH 5
  Inhibition rate of decalcification: 38.76%
[2]; 5 hrs decalcification, reference NaF 2%, pH 7
  Inhibition rate of decalcification: 36.93%

## O.O=P(O)(O)O.[O]=[Mo](=[O])=[O].[O]=[Mo](=[O])=[O].[O]=[Mo](=[O])=[O].[O]=[Mo](=[O])=[O].[O]=[Mo](=[O])=[O].[O]=[Mo](=[O])=[O].[O]=[Mo](=[O])=[O].[O]=[Mo](=[O])=[O].[O]=[Mo](=[O])=[O].[O]=[Mo](=[O])=[O].[O]=[Mo](=[O])=[O].[O]=[Mo](=[O])=[O] [P2 O5 . 24MoO3, phosphomolybdic acid]
[2]; [5]
  Inhibition rate of decalcification: 58.32%
[2]; [13]
  Inhibition rate of decalcification: 45.22%
[2]; [7]
  Inhibition rate of decalcification: 52.02%
[2]; [14]
  Inhibition rate of decalcification: 44.82%
[2]; [9]
  Inhibition rate of decalcification: 54.24%
[2]; [15]
  Inhibition rate of decalcification: 47.39%
[2]; [11]
  Inhibition rate of decalcification: 43.12%
[2]; [16]
  Inhibition rate of decalcification: 44.61%

Reference: patent US4252788A, “Dental composition for preventing and inhibiting dental caries” (Toyo Seiyaku Kasei Co., Ltd., priority 1979, dated 1981)
